The text below walks through data of US6896900B2, “β-L-2'-deoxy-nucleosides for the treatment of HIV infection” (Emory University, priority 1998, dated 2005).

The structures appear in SMILES notation. pEC50, pIC50: −log10 of the molar value. Some results are limits rather than exact numbers.

Data set [1] concerns HIV. The data set can be described thus: Anti-HIV activity in CEM cells. The note with it: for pEC50: Human immunodeficiency virus 1, CCRF-CEM, read-out: Antiviral Activity EC50. The class given is cell-based. The protocol: (§1) The anti-HIV activity of L-2′-A-5-FddC and L-3′-A-5-FddC was tested in CEM and PBM cells.
The nature of data set [2]: Cytotoxicity in CEM cells. The format is cell-based. To be noted: human.
In data set [3] the test system is HIV-1 (strain LAV). The data set can be described thus: Inhibition of HIV-1 replication in human PBM cells (reverse transcriptase readout). The note with it: for pEC50: Human immunodeficiency virus 1, PBMC, 144 h, HIV-1 strain LAV, day 6, read-out: Antiviral Activity EC50. The class given is cell-based. The protocol:
Antiviral compositions can be screened in vitro for inhibition of HIV by various experimental techniques. One such technique involves measuring the inhibition of viral replication in human peripheral blood mononuclear (PBM) cells. The amount of virus produced is determined by measuring the quantity of virus-coded reverse transcriptase (RT), an enzyme found in retroviruses, that is present in the cell culture medium.
Three-day-old phytohemagglutinin-stimulated PBM cells (10^6 cells/ml) from hepatitis B and HIV-1 seronegative healthy donors were infected with HIV-1 (strain LAV) at a concentration of about 100 times the 50% tissue culture infectious done (TICD 50) per ml and cultured in the presence and absence of various concentrations of antiviral compounds.
Approximately one hour after infection, the medium, with the compound to be tested (2 times the final concentration in medium) or without compound, was added to the flasks (5 ml; final volume 10 ml). AZT was used as a positive control. The cells were exposed to the virus (about 2×10^5 dpm/ml, as determined by reverse transcriptase assay ) and then placed in a CO2 incubator. HIV-1 (strain LAV) was obtained from the Centers for Disease Control, Atlanta, Ga. The methods used for culturing the PBM cells, harvesting the virus and determining the reverse transcriptase activity were those described by McDougal et al. (J. Immun. Meth. 76, 171-183, 1985) and Spira et al., (J. Clin. Meth. 25, 97-99, 1987), except that fungizone was not included in the medium (see Schinazi, et al., Antimicrob. Agents Chemother. 32, 1784-1787 (1988); Antimicrob. Agents Chemother., 34: 1061-1067 (1990)).
On day 6, the cells and supernatant were transferred to a 15 ml tube and centrifuged at about 900 g for 10 minutes. Five ml of supernatant were removed and the virus was concentrated by centrifugation at 40,000 rpm for 30 minutes (Beckman 70.1 Ti rotor). The solubilized virus pellet was processed for determination of the levels of reverse transcriptase. Results are expressed in dpm/ml of sampled supernatant. Virus from smaller volumes of supernatant (1 ml) can also be concentrated by centrifugation prior to solubilization and determination of reverse transcriptase levels.
The median effective (EC50) concentration was determined by the median effect method (Antimicrob. Agents Chemother. 30, 491-498 (1986). Briefly, the percent inhibition of virus, as determined from measurements of reverse transcriptase, is plotted versus the micromolar concentration of compound. The EC50 is the concentration of compound at which ther is a 50% inhibition of viral growth.
as §1

Data set [4] in a line: Cytotoxicity in uninfected human PBM cells (trypan blue cell count). The format is cell-based. The note with it: mitogen-stimulated uninfected human PBM cells, six days. The protocol:
Mitogen stimulated uninfected human PBM cells (3.8×10^5 cells/ml) were cultured in the presence and absence of drug under similar conditions as those used for the antiviral assay described above. The cells were counted after six days using a hemacytometer and the trypan blue exclusion method, as described by Schinazi et al., Antimicrobial Agents and Chemotherapy, 22(3), 499 (1982). The IC50 is the concentration of compound which inhibits 50% of normal cell growth. The anti-HIV activity of L-2′-A-5-FddC and L-3′-A-5-FddC was tested in CEM and PBM cells.

A word on the pEC50: it is the negative decadic logarithm of the EC50, by convention in mol/L. As usually defined, the pIC50 is the negative decadic logarithm of the IC50, by convention in mol/L. A higher pIC50 goes with a low IC50. For orientation: melting point means the temperature of the solid-liquid transition. As usually defined, the IC50 is the concentration needed to halve the response being measured. A higher IC50 goes with weaker potency in that assay. For `[N-]=[N+]=NC1C[C@H](CO)O[C@@H]1n1cc(F)c(N)nc1=O` (stereo partly drawn) [L-2′-A-5-FddC, β-L-(2′-azido)-2′,3′-dideoxy-5-fluorocytosine], the melting point lay in the range of 219 to 221 °C. For the same compound, in data set [1], the “Selectivity Index IC50/EC50” value is over 30 and the pEC50 is 5.41. The same compound had a pIC50 in data set [2] of under 4.00. For the same compound, in data set [3], the “Selectivity Index IC50/EC50” value is recorded as over 100 and the pEC50 is 6.00. Moreover, in data set [4], the IC50 at 6 days is over 100 µM.
Turning to `[N-]=[N+]=NC1C[C@@H](n2cc(F)c(N)nc2=O)O[C@H]1CO` (stereo partly drawn) [L-3′-A-5-FddC, β-L-(3′-azido)-2′,3′-dideoxy-5-fluorocytosine], in data set [1], the “Selectivity Index IC50/EC50” value was over 344 and the negative logarithm of the EC50 (pEC50) is 6.54. Besides, in data set [2], the pIC50 was under 4.00. Moreover, in data set [3], the “Selectivity Index IC50/EC50” value is on record as over 2647 and the pEC50 is 7.30. In addition, the IC50 at 6 days in data set [4] was over 100 µM.
